Laboratory results reported in US20100016213A1, “USE OF A DITERPENOID COMPOUND FOR TREATING DIABETES” (National Taiwan University, priority 2008, published 2010).

Assays:
Assay type in all cases: in vivo
[1] = tested on: Diet-induced diabetic mice (NIDDM); test: Lowering plasma glucose levels via oral administration, diet-induced diabetic mice; settings: oral 10.0 mg/kg, sixty minutes after treatment, mean ± SEM, six animals
Method: (§1) Normal, STZ-induced diabetic mice, and diet-induced diabetic mice were administered orally with 10.0 mg/kg borapetoside C, glibenclamide or metformin as a positive control, and a vehicle control. The plasma glucose levels of the treated mice were determined before and sixty minutes after treatment and the results thus obtained were shown in Table 3 below.

[2] = tested on: Diet-induced diabetic (NIDDM) mice; test: Plasma insulin levels before and after treatment (Insulin ELISA), diet-induced diabetic mice; settings: 5.0 mg/kg i.p.; for Plasma insulin, Pre-treatment: before treatment; for Plasma insulin, post-treatment: one hour after treatment
Method: (§2) Normal mice, STZ-induced diabetic mice, and diet-induced diabetic mice were administered with a vehicle control, borapetoside A (5.0 mg/kg), borapetoside C (at various doses), glibenclamide (5.0 mg/kg) or metformin (500 mg/kg) by intraperitoneal injection. These mice were examined for their blood insulin levels before and one hour after treatment, using the Insulin(Rat) ELISA kit obtained from Penisula Lab. Inc., San Carlos, Calif., USA.

[3] = tested on: DIO-induced diabetic mice; test: Lowering plasma glucose level, intraperitoneal injection, diet-induced obesity diabetic mice (type II diabetes model); settings: one hour after administration
Method: Normal and diet-induced obesity diabetic mice (“DIO-induced diabetic mice) were administered with borapetoside A (5.0 mg/kg), borapetoside C (5.0 mg/kg), glibenclamide (5.0 mg/kg), metformin (500.0 mg/kg), or a vehicle control via intraperitoneal injection. DIO-induced diabetic mice are a well-known mouse model of type II diabetes (non-insulin dependent). See Liu et al., J Mol. Endocrinol. 2008.
The plasma glucose levels of the treated mice were determined before and one hour after administration. The activities of these compounds for lowering plasma glucose levels were calculated as described above.
Borapetoside C was administered to DIO-induced diabetic mice at 0.1, 1.0, 3.0, and 5.0 mg/kg and the plasma glucose levels were examined before and after administration. The basal plasma glucose concentration in diet-induced diabetic mice (untreated) was 174.6±7.7 mg/dL. One hour after treatment, the plasma glucose levels in mice treated with vehicle control, 0.1 mg/kg borapetoside C, 1.0 mg/kg borapetoside C, 3.0 mg/kg borapetoside C, and 5.0 mg/kg borapetoside C were 172.5±10.9 mg/dL, 170.5±6.8 mg/dL, 127.9±6.0 mg/dL, 121.3±4.3 mg/dL and 119.9±4.6 mg/dL, respectively.

[4] = tested on: STZ-induced diabetic mice; test: Lowering plasma glucose level, intraperitoneal injection, STZ-induced diabetic mice (type I diabetes model); settings: one hour after administration
Method: (§3) Normal and streptozotocin (STZ)-induced diabetic mice were administered with borapetoside A (5.0 mg/kg), borapetoside C (5.0 mg/kg), glibenclamide (5.0 mg/kg), metformin (500.0 mg/kg), or a vehicle control via intraperitoneal injection. STZ-induced diabetic mice are a well-known mouse model of type I diabetes (insulin dependent). See, e.g., Liu I M, et al., Neuroscience Letters 2001; 307: 81-84. Glibenclamide and metformin serve as two positive controls in this study.
(§4) The plasma glucose levels of the treated mice were determined before and one hour after administration. The activity of lowering plasma glucose levels (AL) is calculated following the formula: […]
(§5) Borapetoside C was administered to normal mice at 0.1, 1.0, 3.0, and 5.0 mg/kg and to STZ-diabetic mice at 0.1, 1.0, 3.0, and 5.0 mg/kg. The plasma glucose levels of the treated mice were examined before and after treatment.

[5] = tested on: DIO-induced diabetic mice; test: Intraperitoneal glucose tolerance test (IPGTT), DIO-induced diabetic mice; settings: diet-induced diabetic mice, borapetoside C 5.0 mg/kg
Method: (§6) Normal ICR mice and DIO-induced diabetic mice, treated with borapetoside C (5.0 mg/kg), a vehicle control, or glibenclamide (positive control), were subjected to an intraperitoneal glucose tolerance test (IPGTT) as described in Lamont et al., Diabetes 2008; 57: 190-198. More specifically, glucose (2.0 mg/g body weight) was administered via IP injection to normal and DIO mice and blood samples were drawn from the treated mice before and 30, 60, 120, and 150 min after glucose administration for examination of glucose levels.
In diet-induced diabetic mice treated with borapetoside C, the vehicle control, and glibenclamide, the basal plasma glucose concentrations were 181.6±12.3 mg/dL, 183.1±2.9 mg/dL, and 185.3±7.7 mg/dL, respectively. Thirty minutes after intraperitoneal glucose injection, the plasma glucose concentration was elevated to 405.6±8.9 mg/dL in vehicle-treated mice, to 343.5±11.2 mg/dL in borapetoside C-treated mice, or to 339.1±15.4 mg/dL in glibenclamide-treated mice.

[6] = tested on: normal mice; test: Plasma insulin levels before and after treatment (Insulin ELISA), normal mice; settings: 5.0 mg/kg i.p.; for Plasma insulin, Pre-treatment: before treatment; for Plasma insulin, post-treatment: one hour after treatment
Method: as §2

[7] = tested on: normal mice; test: Lowering plasma glucose levels via oral administration, normal mice; settings: oral 10.0 mg/kg, sixty minutes after treatment, mean ± SEM, six animals
Method: as §1

[8] = tested on: Normal ICR mice; test: Intraperitoneal glucose tolerance test (IPGTT), normal ICR mice; settings: borapetoside C 5.0 mg/kg
Method: as §6
In normal mice treated with borapetoside C, the vehicle control, and glibenclamide, the basal plasma glucose concentrations were 106.8±4.7 mg/dL, 114.7±4.6 mg/dL, and 104.9±3.1 mg/dL, respectively. Thirty minutes after intraperitoneal glucose injection, the plasma glucose concentration was elevated to 346.2±14.7 mg/dL in vehicle-treated mice, to 292.9±10.9 mg/dL in borapetoside C-treated mice, or to 273.4±13.6 mg/dL in glibenclamide-treated mice.

[9] = tested on: normal mice; test: Lowering plasma glucose level, intraperitoneal injection, normal mice; settings: normal mice, one hour after administration
Method: as §3, §4, §5

[10] = tested on: STZ-diabetic mice (IDDM); test: Plasma insulin levels before and after treatment (Insulin ELISA), STZ-diabetic mice; settings: for Plasma insulin, Pre-treatment: before treatment; for Plasma insulin, post-treatment: one hour after treatment
Method: as §2

[11] = tested on: DIO-induced diabetic mice; test: Insulin sensitivity: plasma glucose reduction with insulin plus borapetoside C or vehicle, DIO-induced diabetic mice; settings: thirty minutes after insulin
Method: (§7) The effect of borapetoside C on insulin sensitivity was tested following the method described in Liu, et al., Clinical and Experimental Pharmacology and Physiology 2005; 32: 649-654. Normal mice (n=6), STZ-induced diabetic mice (n=5), and DIO-induced diabetic mice (n=7) were treated with insulin at various doses (i.e., 0.1 IU/kg, 0.5 IU/kg, and 1.0 IU/kg) together with either borapetoside C (0.1 mg/kg) or a vehicle control. Their plasma glucose levels were examined before and thirty minutes after insulin administration. The activity of lowering plasma glucose levels (AL) was calculated following the formula described in Example 2 above.

[12] = tested on: DIO-induced diabetic mice(NIDDM); test: Glycogen content in skeletal muscle, DIO-induced diabetic mice; settings: 30 minutes after injection
Method: (§8) Normal, STZ-induced diabetic, and DIO-induced diabetic mice were intraeritoneally injected with borapetoside C (5 mg/kg) and Actrapid (0.5 IU/kg; a short-acting insulin provided by Novo Nordisk) or metformin (500 mg/kg). Their glycogen contents in skeletal muscle were determined 30 minutes after injections.

[13] = tested on: normal mice; test: Glycogen content in skeletal muscle, normal mice; settings: 0.5 IU/kg i.p., 30 minutes after injection
Method: as §8

[14] = tested on: STZ-induced diabetic mice; test: Insulin sensitivity: plasma glucose reduction with insulin plus borapetoside C or vehicle, STZ-induced diabetic mice; settings: thirty minutes after insulin
Method: as §7

[15] = tested on: normal mice; test: Insulin sensitivity: plasma glucose reduction with insulin plus borapetoside C or vehicle, normal mice; settings: thirty minutes after insulin
Method: as §7

[16] = tested on: liver phosphoenolpyruvate carboxykinase (PEPCK); test: Liver PEPCK levels by western blot in STZ-induced mice; settings: borapetoside C 5.0 mg/kg, twice per day for 7 days, insulin dose not given
Method: To characterize the effect of borapetoside C on liver glucose utilization, levels of liver phosphoenolpyruvate carboxykinase (PEPCK) were examined by western blot analysis in STZ-induced mice treated with borapetoside C (5.0 mg/kg, twice per day for 7 days), insulin, or a vehicle control.

[17] = tested on: STZ-diabetic mice(IDDM); test: Glycogen content in skeletal muscle, STZ-diabetic mice; settings: 0.5 IU/kg i.p., 30 minutes after injection
Method: as §8

[18] = tested on: STZ-diabetic mice (IDDM); test: Lowering plasma glucose levels via oral administration, STZ-diabetic mice; settings: oral 500.0 mg/kg, sixty minutes after treatment, mean ± SEM, six animals
Method: as §1

[19] = 5.0 mg/kg intraperitoneal injection
[20] = Insulin 0.1 IU/kg together with Vehicle
[21] = Insulin 0.5 IU/kg together with Vehicle
[22] = Insulin 1.0 IU/kg together with Vehicle
[23] = 500.0 mg/kg intraperitoneal injection

COc1ccc(Cl)cc1C(=O)NCCc1ccc(S(=O)(=O)NC(=O)NC2CCCCC2)cc1 [glibenclamide, reference compound]
Activity of lowing plasma glucose levels (%) [1]: 34.9 ± 4.0 %
Plasma insulin, Pre-treatment [2]: 119.3 ± 9.6 pmol/L
Plasma insulin, post-treatment [2]: 197.0 ± 18.8 pmol/L
AL (activity of lowering plasma glucose levels) [3, 19]: 25.8±2.1%
Activities of Lowering Plasma Glucose Levels (AL) [4, 19]: 3.2 ± 1.9%
basal plasma glucose concentration (IPGTT) ([5]; before glucose injection): 185.3 ± 7.7 mg/dL
plasma glucose concentration thirty minutes after intraperitoneal glucose injection (IPGTT) ([5]; glucose 2.0 mg/g body weight IP, vehicle 405.6±8.9): 339.1 ± 15.4 mg/dL
Plasma insulin, Pre-treatment [6]: 50.8 ± 3.6 pmol/L
Plasma insulin, post-treatment [6]: 149.5 ± 15.0 pmol/L
Activity of lowing plasma glucose levels (%) [7]: 25.9 ± 3.5 %
basal plasma glucose concentration (IPGTT) ([8]; before glucose injection): 104.9 ± 3.1 mg/dL
plasma glucose concentration thirty minutes after intraperitoneal glucose injection (IPGTT) ([8]; glucose 2.0 mg/g body weight IP, vehicle 346.2±14.7): 273.4 ± 13.6 mg/dL
Activities of Lowering Plasma Glucose Levels (AL) [9, 19]: 19.3 ± 1.6%

C[C@@]12C[C@@H](c3ccoc3)OC(=O)[C@@H]1C[C@@H]1OC(=O)[C@@]3(O)[C@@H](O[C@@H]4O[C@H](CO)[C@@H](O)[C@H](O)[C@H]4O)CC[C@@H]2[C@@]13C [borapetoside A]
Plasma insulin, Pre-treatment [2]: 106.6 ± 14.6 pmol/L
Plasma insulin, post-treatment [2]: 173.8 ± 26.9 pmol/L
AL (activity of lowering plasma glucose levels) [3, 19]: 29.7±6.1%
Activities of Lowering Plasma Glucose Levels (AL) [4, 19]: 54.3 ± 6.3%
Plasma insulin, Pre-treatment [6]: 56.0 ± 2.8 pmol/L
Plasma insulin, post-treatment [6]: 117.6 ± 10.8 pmol/L
Plasma insulin, Pre-treatment ([10]; 5.0 mg/kg i.p.): 16.0 ± 4.1 pmol/L
Plasma insulin, post-treatment ([10]; 5.0 mg/kg i.p.): 18.7 ± 8.4 pmol/L
Activities of Lowering Plasma Glucose Levels (AL) [9, 19]: 49.4 ± 4.8%

Insulin: Actrapid, a short-acting insulin provided by Novo Nordisk [reference compound]
AL (%) [11, 20]: 19.5 ± 1.5%
AL (%) [11, 21]: 27.5 ± 2.6%
AL (%) [11, 22]: 32.0 ± 1.1%
Glycogen content (μmol/g wet weight) ([12]; 0.5 IU/kg i.p.): 20.2 ± 0.6 μmol/g wet weight
Glycogen content (μmol/g wet weight) [13]: 30.2 ± 2.0 μmol/g wet weight
AL (%) [14, 20]: 8.7 ± 1.6%
AL (%) [14, 21]: 11.5 ± 0.6%
AL (%) [14, 22]: 24.0 ± 1.3%
AL (%) [15, 20]: 14.6 ± 0.8%
AL (%) [15, 21]: 37.5 ± 1.1%
AL (%) [15, 22]: 56.8 ± 1.9%
liver PEPCK levels versus vehicle control-treated mice (western blot) [16]: much lower
Glycogen content (μmol/g wet weight) [17]: 30.0 ± 1.0 μmol/g wet weight

CN(C)C(=N)N=C(N)N [metformin, reference compound]
Glycogen content (μmol/g wet weight) ([12]; 500 mg/kg i.p.): 23.5 ± 0.9 μmol/g wet weight
AL (activity of lowering plasma glucose levels) [3, 23]: 30.7±0.6%
Activities of Lowering Plasma Glucose Levels (AL) ([4]; intraperitoneal injection): 34.1 ± 5.5%
Plasma insulin, post-treatment ([10]; 500 mg/kg i.p.): 15.1 ± 1.5 pmol/L
Plasma insulin, Pre-treatment [10]: 13.5 ± 1.1 pmol/L
Activity of lowing plasma glucose levels (%) [18]: 18.1 ± 1.9 %
Activities of Lowering Plasma Glucose Levels (AL) [9, 23]: 20.0 ± 2.5%
